Assay results from patent US9517214B2, “Fat-based food products” (IP Science Limited, priority 2011, dated 2016).

Tests used:
[1] = test system: clinically healthy volunteers with hypercholesterolaemia; experiment: Serum lipids (TC, TG, HDL, LDL) in trial of lycopene, butter and L-Butter; assay type: in vivo, human; conditions: after one week of administration of 7 mg of lycopene
Method: (§1) Clinically Healthy Volunteers with Hypercholesterolaemia
(§2) Commercially available butter (President, Lactalis) was melted at 40° C. The melted butter was blended with tomato oleoresin, containing 15% of lycopene (Lyc-O-Mato), in the ratio of […] of oleoresin to 30 g of the butter in a thermo-controlled mixer. The mixture was blended for 10 minutes and cooled down to the room temperature. The butter was then divided into daily 30 g portions. Butter was stored at 4° C. until use. Freshly made batches of the L-Butter were made weekly.
(§3) Each portion of 30 g butter contained 47.1 mg of tomato oleoresin or about 7 mg of lycopene.
(§4) The melting and mixing procedures were performed as described above using the same commercially available butter, but instead of tomato oleoresin, sunflower oil (Flora™) was used.
(§5) 47.1 mg of tomato oleoresin was pre-dissolved in ethanol and mixed with Whey Protein as described in Richelle et al (2002) J. Nutr 132 404-408, WO01/091588 and US2002/01072992. Then the mixture was placed into gelatine capsules.
(§6) 18 clinically healthy volunteers, 9 males and 9 females, age 45-69, were recruited for this study.
(§7) • elevated total serum cholesterol above 200 mg/dL and/or triglycerides above 150 mg/dL, • all patients were naive for any lipid-lowering medications, • willing participate in the study. […]
(§8) All blood samples were coded. Their lab analysis and reading of the results were blinded. […]

[2] = daily consumption of 6-10 mg lycopene; cited from earlier work
[3] = test system: clinically healthy volunteers with hypercholesterolaemia; experiment: Antibody inflammatory marker Px-IgG in the same trial; assay type: in vivo, human; conditions: 7 mg lycopene daily, capsules; Baseline; individual volunteers
Method: as §1, §2, §3, §4, §5, §6, §7, §8

Q: Which “changes in levels of elevated cholesterol, triglycerides and markers of oxidative damage or inflammation” value [1] does the source give for CC(C)=CCC/C(C)=C/C=C/C(C)=C/C=C/C(C)=C/C=C/C=C(C)/C=C/C=C(C)/C=C/C=C(\C)CCC=C(C)C [Lycopene] here?
A: not any changes

Q: And the “effect on cholesterol or other blood lipids” value [2]?
A: no effect

Q: What about the Px-IgG [3] of the same compound?
A: 0.765 U/ml
